Entries after “also recorded” stand apart in the source; their conditions may differ. Values belong to the compound of their own block, whether it stands above or below them.
Tests used:
LTRGW1 [1] = biological target: T1, LTRGW1 (Homo sapiens, UniProt Q9NPC1); conditions: leukotriene binding to LTRGW1; Kamohara et al; cited from earlier work
T1 sequence (Q9NPC1 1-358): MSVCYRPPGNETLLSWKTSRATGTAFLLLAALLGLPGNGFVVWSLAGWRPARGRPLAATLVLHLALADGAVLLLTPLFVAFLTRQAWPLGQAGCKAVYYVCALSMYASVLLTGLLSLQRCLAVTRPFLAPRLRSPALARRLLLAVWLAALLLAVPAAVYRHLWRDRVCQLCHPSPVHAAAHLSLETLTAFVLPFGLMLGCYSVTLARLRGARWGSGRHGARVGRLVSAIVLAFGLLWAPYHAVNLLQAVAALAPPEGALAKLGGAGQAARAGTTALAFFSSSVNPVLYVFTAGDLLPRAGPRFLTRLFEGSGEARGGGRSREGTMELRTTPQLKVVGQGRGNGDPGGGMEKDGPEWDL

[2] = test system: Mock transfected CHO cells; assay: FLIPR intracellular calcium response to LTB4, mock transfected CHO cells; format: cell-based; conditions: LTB4 10^-10 to 10^-7 M, normalised to luciferase
Procedure: (§1) […] total DNA was transfected into CHO cells using the following transfection mix: 5 μg BLTR, pcDNA3 as needed to keep constant the amount of total DNA used, 1 μg pCMV-luciferase and BLTR-2 at various concentration. Responses to LTB4 (between 10^−10 and 10^−7 M) were measured using a FLIPR assay (Fluorescence Imaging Plate Reader—Molecular Devices) and values were normalised relative to the luciferase reading.

LTRGW1 [3] = assay: FLIPR intracellular calcium response to LTB4, CHO cells transfected with LTRGW1 alone; format: cell-based, human
Procedure: […] Responses to LTB4 (between 10^−10 and 10^−7 M) were measured using a FLIPR assay (Fluorescence Imaging Plate Reader—Molecular Devices) and values were normalised relative to the luciferase reading.

BLTR/LTRGW1 = assay: FLIPR intracellular calcium response to LTB4, CHO cells co-transfected with BLTR and LTRGW1; format: cell-based, human
Procedure: as §1

[4] = biological target: T2, BLTR and LTRGW1 co-expressed (Homo sapiens, UniProt Q15722+Q9NPC1); assay: [3H]LTB4 binding to membranes of transfected CHO cells, scintillation proximity assay; conditions: [3H]LTB4, membranes of transfected CHO cells; compared with BLTR or LTRGW1 alone; FIG. 2
T2 construct: expressed in transfected cells; host or cells: CHO
Procedure: CHO cells were transfected with DNA as described in Example 1. [^3H] LTB4 binding to membrane preparations from transfected cells was measured using wheat germ agglutinin beads in a scintillation proximity assay. The assay was carried out in 50: g Hepes 20: g MgCl2 in a total assay volume of 100: g. [^3H] LTB4 was used to measure total binding. [^3H] LTB4 was then displaced with unlabelled LTB4 to measure non-specific binding (NSB). The binding of LTB4 to cells expressing BLTR cells co-expressing BLTR and LTRGW1 and cells expressing LTRGW1 is illustrated in FIG. 2.

LTRGW1 [5] = biological target: T1, LTRGW1; conditions: Yokomizo et al; cited from earlier work
LTRGW1 [6] = biological target: T1, LTRGW1; conditions: Kamohara et al; cited from earlier work
BLTR = biological target: T3, BLTR (Homo sapiens, UniProt Q15722); assay: FLIPR intracellular calcium response to LTB4, CHO cells transfected with BLTR; format: cell-based; conditions: LTB4 10^-10 to 10^-7 M
T3 construct: expressed in transfected cells; host or cells: CHO
Procedure: as §1

T2 sequence (Q15722 whole entry, one chain of several): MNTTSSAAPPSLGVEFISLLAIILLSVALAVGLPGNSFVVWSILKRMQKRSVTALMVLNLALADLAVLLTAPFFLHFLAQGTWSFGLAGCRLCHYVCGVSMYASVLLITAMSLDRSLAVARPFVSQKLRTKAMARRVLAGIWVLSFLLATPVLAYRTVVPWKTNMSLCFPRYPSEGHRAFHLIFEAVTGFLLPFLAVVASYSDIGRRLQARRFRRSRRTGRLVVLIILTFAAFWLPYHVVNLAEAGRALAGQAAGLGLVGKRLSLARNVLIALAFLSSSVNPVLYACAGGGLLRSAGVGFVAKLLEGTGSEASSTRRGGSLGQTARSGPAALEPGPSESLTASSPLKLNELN
T3 sequence (Q15722 whole entry): as the sequence (Q15722 whole entry, one chain of several) above

Compound: CCCCC/C=C\C[C@H](O)/C=C/C=C/C=C\[C@@H](O)CCCC(=O)O [12-epi-LTB4]
Forskolin-stimulated intracellular cAMP accumulation (LTRGW1 [1]): inhibition

LTB4 binding to cells co-expressing BLTR and LTRGW1 [4]: enhancement | Response to LTB4 (BLTR): Active
Compound: CCCCC/C=C\C[C@@H](O)/C=C/C=C/C=C\[C@@H](O)CCCC(=O)O [LTB4]
Response to LTB4 [2]: Inactive | Response to LTB4 (LTRGW1 [3]; CHO cells transfected with LTRGW1(274)): Inactive | Response to LTB4 (LTRGW1 [3]; CHO cells transfected with LTRGW1(275)): Inactive | Response to LTB4 (LTRGW1 [3]; CHO cells transfected with LTRGW1(276)): Inactive | Mobilisation of intracellular calcium in response to LTB4 (LTRGW1 [3]; LTRGW1 expressed alone in CHO cells): does not induce a detectable mobilisation of intracellular calcium | Response to LTB4 (BLTR/LTRGW1; CHO cells transfected with BLTR/LTRGW1(276), FLIPR): Active | Response of BLTR to LTB4 when LTRGW1 is co-expressed (BLTR/LTRGW1; compared with BLTR alone, increase proportional to amount of LTRGW1 in transfection mix, FIG. 1): increased | Forskolin-stimulated intracellular cAMP accumulation (LTRGW1 [1]): inhibition | Cellular calcium (LTRGW1 [5]): increases cellular calcium; also recorded: increases intracellular calcium | Chemotaxis (LTRGW1 [6]): induces chemotaxis

Compound: CCCCCCCC[C@H](O)/C=C/C=C\C=C\[C@H](O)CCCC(=O)O [LTB3]
Forskolin-stimulated intracellular cAMP accumulation (LTRGW1 [1]): inhibition

Compound: CC/C=C\C/C=C\C[C@@H](O)/C=C/C=C/C=C\[C@@H](O)CCCC(=O)O [LTB5]
Forskolin-stimulated intracellular cAMP accumulation (LTRGW1 [1]): inhibition

— patent publication US20030171545A1, “Novel Protein” (priority 1999, published 2003)
